{"source": "patent US20080200448A1", "about": "“New Pyridine Analogues VIII 518” (ASTRAZENECA AB, priority 2007, published 2008)", "target": "T1, P2Y12 receptor (Homo sapiens, UniProt Q9H244)", "T1 construct": "expressed in transfected cells; host or cells: CHO cells (membrane preparation)", "T1 sequence (Q9H244 whole entry)": "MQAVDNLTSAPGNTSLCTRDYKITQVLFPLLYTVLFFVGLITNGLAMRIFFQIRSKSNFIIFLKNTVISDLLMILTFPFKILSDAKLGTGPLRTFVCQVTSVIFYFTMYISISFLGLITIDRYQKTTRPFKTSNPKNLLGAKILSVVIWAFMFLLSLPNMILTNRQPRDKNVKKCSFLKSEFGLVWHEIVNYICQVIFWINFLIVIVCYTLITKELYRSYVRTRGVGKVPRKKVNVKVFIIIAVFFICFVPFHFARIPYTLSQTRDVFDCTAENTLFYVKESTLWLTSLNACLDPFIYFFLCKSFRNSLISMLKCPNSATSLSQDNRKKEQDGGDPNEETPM", "assay": "Functional inhibition of 2-Me-S-ADP induced P2Y12 signalling (35S-GTPγS binding, cell membranes)", "assay_type": "biochemical", "details": "35S-GTPγS assay, membranes, EC80 concentration of 2-methyl-thio-adenosine diphosphate, 30° C. for 45 min; read-out: GTPγS (IC50 μM)", "protocol": "Functional inhibition of- the P2Y12 receptor can be measured by in vitro assays using cell membranes from P2Y12 transfected CHO-cells, the methodology is indicated below.\nFunctional inhibition of 2-Me-S-ADP induced P2Y12 signalling: 5 μg of membranes were diluted in 200 μl of 200 mM NaCl, 1 mM MgCl2, 50 mM HEPES (pH 7.4), 0.01% BSA, 30 μg/ml saponin and 10 μM GDP. To this was added an EC80 concentration of agonist (2-methyl-thio-adenosine diphosphate), the required concentration of test compound and 0.1 μCi ^35S-GTPγS. The reaction was allowed to proceed at 30° C. for 45 min. Samples were then transferred on to GF/B filters using a cell harvester and washed with wash buffer (50 mM Tris (pH 7.4), 5 mM MgCl2, 50 mM NaCl). Filters were then covered with scintilant and counted for the amount of ^35S-GTPγS retained by the filter. Maximum activity was that determined in the presence of the agonist and minimum activity in the absence of the agonist following subtraction of the value determined for non-specific activity. The effect of compounds at various concentrations was plotted according to the equation\ny=A+((B−A)/(1+((C/x)̂D)))\nand IC50 estimated where A is the bottom plateau of the curve i.e. the final minimum y value B is the top of the plateau of the curve i.e. the final maximum y value C is the x value at the middle of the curve. This represents the log EC50 value when A+B=100 D is the slope factor. x is the original known x values. Y is the original known y values."}
{"smiles": "CCOC(=O)c1cc(C#N)c(N2CC(C(=O)NS(=O)(=O)Cc3ccccc3)C2)nc1CSCCO", "note": "[Example 31, Ethyl 6-{3-[(benzylsulfonyl)carbamoyl]azetidin-1-yl}-5-cyano-2-{[(2-hydroxyethyl)thio]methyl}nicotinate]", "values": [{"measurement": "IC50", "value": 0.066, "unit": "µM"}]}
{"smiles": "CCOC(=O)c1cc(C#N)c(N2CC(C(=O)NS(=O)(=O)Cc3ccccc3)C2)nc1CSCCNC(C)=O", "note": "[Example 32, Ethyl 2-{[(2-acetamidoethyl)thio]methyl}-6-{3-[(benzylsulfonyl)carbamoyl]azetidin-1-yl}-5-cyanonicotinate]", "values": [{"measurement": "IC50", "value": 0.081, "unit": "µM"}]}
{"smiles": "CCOC(=O)c1cc(C#N)c(N2CCC(C(=O)NS(=O)(=O)Cc3ccccc3)CC2)nc1CN1CCCC1=O", "note": "[Example 33, Ethyl 6-{4-[(benzylsulfonyl)carbamoyl]piperidin-1-yl}-5-cyano-2-[(2-oxopyrrolidin-1-yl)methyl]nicotinate]", "values": [{"measurement": "IC50", "value": 0.0097, "unit": "µM"}]}
{"smiles": "CC(C)OC(=O)c1cc(C#N)c(N2CCC(C(=O)NS(=O)(=O)Cc3ccccc3)CC2)nc1CN1CCCC1=O", "note": "[Example 34, Isopropyl 6-{4-[(benzylsulfonyl)carbamoyl]piperidin-1-yl}-5-cyano-2-[(2-oxopyrrolidin-1-yl)methyl]nicotinate]", "values": [{"measurement": "IC50", "value": 0.033, "unit": "µM"}]}
{"smiles": "CCOC(=O)c1cc(C#N)c(N2CCC(C(=O)NS(=O)(=O)Cc3ccc(C(F)(F)F)cc3)CC2)nc1CN1CCCC1=O", "note": "[Example 35, Ethyl 5-cyano-2-[(2-oxopyrrolidin-1-yl)methyl]-6-[4-({[4-(trifluoromethyl)benzyl]sulfonyl}carbamoyl)piperidin-1-yl]nicotinate]", "values": [{"measurement": "IC50", "value": 0.0097, "unit": "µM"}]}
{"smiles": "CCOC(=O)c1cc(C#N)c(N2CCC(C(=O)NS(=O)(=O)CC3CCCC3)CC2)nc1CN1CCCC1=O", "note": "[Example 36, Ethyl 5-cyano-6-(4-{[(cyclopentylmethyl)sulfonyl]carbamoyl}piperidin-1-yl)-2-[(2-oxopyrrolidin-1-yl)methyl]nicotinate]", "values": [{"measurement": "IC50", "value": 0.017, "unit": "µM"}]}
{"smiles": "CCOC(=O)c1cc(C#N)c(N2CCC(C(=O)NS(=O)(=O)CC3CCC(C)CC3)CC2)nc1CN1CCCC1=O", "note": "(stereo not drawn) [Example 37, Ethyl 5-cyano-6-[4-({[(4-methylcyclohexyl)methyl]sulfonyl}carbamoyl)piperidin-1-yl]-2-[(2-oxopyrrolidin-1-yl)methyl]nicotinate]", "values": [{"measurement": "IC50", "value": 0.03, "unit": "µM"}]}
{"smiles": "CCOC(=O)c1cc(C#N)c(N2CCC(C(=O)NS(=O)(=O)Cc3ccc(F)cc3F)CC2)nc1CN1CCCC1=O", "note": "[Example 38, Ethyl 5-cyano-6-(4-{[(2,4-difluorobenzyl)sulfonyl]carbamoyl}piperidin-1-yl)-2-[(2-oxopyrrolidin-1-yl)methyl]nicotinate]", "values": [{"measurement": "IC50", "value": 0.0033, "unit": "µM"}]}
{"smiles": "CCOC(=O)c1cc(C#N)c(N2CCC(C(=O)NS(=O)(=O)Cc3ccc(Cl)cc3)CC2)nc1CN1CCCC1=O", "note": "[Example 39, Ethyl 6-(4-{[(4-chlorobenzyl)sulfonyl]carbamoyl}piperidin-1-yl)-5-cyano-2-[(2-oxopyrrolidin-1-yl)methyl]nicotinate]", "values": [{"measurement": "IC50", "value": 0.011, "unit": "µM"}]}
{"smiles": "CCOC(=O)c1cc(C#N)c(N2CCC(C(=O)NS(=O)(=O)Cc3ccc(F)cc3)CC2)nc1CN1CCCC1=O", "note": "[Example 40, Ethyl 5-cyano-6-(4-{[(4-fluorobenzyl)sulfonyl]carbamoyl}piperidin-1-yl)-2-[(2-oxopyrrolidin-1-yl)methyl]nicotinate]", "values": [{"measurement": "IC50", "value": 0.025, "unit": "µM"}]}
{"smiles": "CCOC(=O)c1cc(C#N)c(N2CCC(C(=O)NS(=O)(=O)Cc3ccc(Cl)cc3Cl)CC2)nc1CN1CCCC1=O", "note": "[Example 41, Ethyl 5-cyano-6-(4-{[(2,4-dichlorobenzyl)sulfonyl]carbamoyl}piperidin-1-yl)-2-[(2-oxopyrrolidin-1-yl)methyl]nicotinate]", "values": [{"measurement": "IC50", "value": 0.016, "unit": "µM"}]}
{"smiles": "CCOC(=O)c1cc(C#N)c(N2CCC(C(=O)NS(=O)(=O)Cc3ccc(C)cc3)CC2)nc1CN1CCCC1=O", "note": "[Example 42, Ethyl 5-cyano-6-(4-{[(4-methylbenzyl)sulfonyl]carbamoyl}piperidin-1-yl)-2-[(2-oxopyrrolidin-1-yl)methyl]nicotinate]", "values": [{"measurement": "IC50", "value": 0.012, "unit": "µM"}]}
